This passage reports IC50 results from patent US9663526B2, “Aminopyrimidinyl compounds” (Pfizer Inc., priority 2014, dated 2017).

In test [1] the target is recombinant human kinase domain of JAK1 (Homo sapiens (Human), UniProt P23458). Briefly: JAK Caliper enzyme assay at 1 mM ATP (JAK1).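 Further: microfluidic mobility-shift readout of synthetic fluorescent peptide phosphorylation, percent product converted from peak height, inhibition relative to DMSO-only wells as uninhibited baseline, room temperature incubation.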 To be noted: 1 mM ATP; read-out: IC50 (nM) JAK1. Format: biochemical.
Test [2] deals with recombinant human kinase domain of JAK3 (Homo sapiens (Human), UniProt P52333). Briefly: JAK Caliper enzyme assay at 1 mM ATP (JAK3).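 Further: microfluidic mobility-shift readout of synthetic peptide phosphorylation, percent product converted from peak heights, normalized to DMSO-only wells as uninhibited baseline, room temperature incubation.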 The settings on record: 1 mM ATP; read-out: IC50 (nM) JAK3. The class given is biochemical.
Test [3] has as its target recombinant human kinase domain of TYK2 (Homo sapiens (Human), UniProt P29597). Briefly: JAK Caliper enzyme assay at 1 mM ATP (TYK2).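 Further: microfluidic mobility-shift readout of synthetic peptide phosphorylation by TYK2, tuned to 20–30% conversion at room temperature, reaction stopped with EDTA, DMSO-only wells as uninhibited baseline.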 The class given is biochemical. To be noted: 1 mM ATP; read-out: IC50 (nM) TYK2.
Test [4] concerns the target recombinant human kinase domain of JAK2 (Homo sapiens (Human), UniProt O60674). Briefly: JAK Caliper enzyme assay at 1 mM ATP (JAK2).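 Further: microfluidic mobility-shift read-out of fluorescent synthetic peptide phosphorylation, percent product converted from peak heights, room temperature, DMSO-only wells as uninhibited baseline, inhibition curve fit.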 Format: biochemical.
In test [5] the test system is interferon alpha signalling (TYK2 and JAK1), STAT3 phosphorylation. In words: Human whole blood INFα induced STAT3 phosphorylation assay.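 Further: flow cytometry with anti-pSTAT3 staining, signal as percent-positive × mean fluorescence, baseline from unstimulated wells, 11-point dilution series, IC50 as inhibition of pSTAT3.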 Format: cell-based. To be noted: compound 60 minutes at 37° C., IFNα 5000 U/ml for 15 minutes, pSTAT3 in lymphocyte population by flow cytometry, read-out: HWB IFN alpha IC50.

Each structure is given as a SMILES string.

Chain of recombinant human kinase domain of JAK1 (P23458 875-1153): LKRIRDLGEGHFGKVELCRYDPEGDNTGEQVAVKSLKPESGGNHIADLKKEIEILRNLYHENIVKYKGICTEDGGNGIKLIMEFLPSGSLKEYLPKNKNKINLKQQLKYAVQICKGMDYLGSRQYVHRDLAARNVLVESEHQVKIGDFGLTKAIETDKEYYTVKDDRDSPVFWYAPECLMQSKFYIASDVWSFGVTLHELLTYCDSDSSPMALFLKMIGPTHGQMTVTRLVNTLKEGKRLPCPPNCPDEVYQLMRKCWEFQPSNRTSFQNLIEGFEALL
Chain of recombinant human kinase domain of TYK2 (P29597 897-1176): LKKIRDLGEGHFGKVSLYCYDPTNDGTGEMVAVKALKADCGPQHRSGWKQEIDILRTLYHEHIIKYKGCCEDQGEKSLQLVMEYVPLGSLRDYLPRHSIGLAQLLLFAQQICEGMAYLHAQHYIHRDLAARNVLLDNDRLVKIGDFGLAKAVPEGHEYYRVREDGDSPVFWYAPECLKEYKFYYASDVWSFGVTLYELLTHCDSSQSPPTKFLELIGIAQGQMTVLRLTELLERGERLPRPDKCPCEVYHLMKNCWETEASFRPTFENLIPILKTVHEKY
Chain of recombinant human kinase domain of JAK3 (P52333 822-1111): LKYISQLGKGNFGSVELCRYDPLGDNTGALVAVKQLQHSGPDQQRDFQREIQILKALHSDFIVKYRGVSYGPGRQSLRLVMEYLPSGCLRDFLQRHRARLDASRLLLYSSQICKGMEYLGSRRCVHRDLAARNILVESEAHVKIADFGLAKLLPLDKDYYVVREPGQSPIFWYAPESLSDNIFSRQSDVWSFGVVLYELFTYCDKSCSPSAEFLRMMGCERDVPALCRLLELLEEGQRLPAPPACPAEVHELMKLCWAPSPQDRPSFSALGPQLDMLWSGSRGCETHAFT
Chain of recombinant human kinase domain of JAK2 (O60674 849-1124): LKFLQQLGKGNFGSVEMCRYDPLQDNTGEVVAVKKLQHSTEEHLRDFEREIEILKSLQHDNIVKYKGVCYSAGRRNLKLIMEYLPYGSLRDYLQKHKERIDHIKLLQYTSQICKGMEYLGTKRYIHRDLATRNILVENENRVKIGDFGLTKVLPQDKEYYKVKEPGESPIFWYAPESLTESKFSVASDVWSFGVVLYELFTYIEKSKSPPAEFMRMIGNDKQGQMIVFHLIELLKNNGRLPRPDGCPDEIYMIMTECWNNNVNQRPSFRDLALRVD

Consider `Cn1cc(Nc2nccc(N3C[C@H]4CC[C@@H](C3)N4Cc3nccs3)n2)cn1` [Example 57, N-(1-methyl-1H-pyrazol-4-yl)-4-[(1R,5S)-8-(1,3-thiazol-2-ylmethyl)-3,8-diazabicyclo[3.2.1]oct-3-yl]pyrimidin-2-amine], for which the IC50 in test [1] was 294 nM; in test [2], > 10000 nM; in test [3], 89 nM; in test [4], 1070 nM; in test [5], 338 nM.

With `CCNC(=O)N1[C@@H]2CC[C@H]1CN(c1ccnc(Nc3cnc(C(=O)NC)c(C)c3)n1)C2` [Example 91, (1R,5S)—N-ethyl-3-(2-{[5-methyl-6-(methylcarbamoyl)pyridin-3-yl]amino}pyrimidin-4-yl)-3,8-diazabicyclo[3.2.1]octane-8-carboxamide], the IC50 was 183 nM in test [1]; > 10000 nM in test [2]; 39 nM in test [3]; 513 nM in test [4]; 195 nM in test [5].

With `O=C([C@@H]1CC1(F)F)N1[C@@H]2CC[C@H]1CN(c1ccnc(Nc3cnc(CO)c(F)c3)n1)C2` [Example 25, [(1S)-2,2-difluorocyclopropyl][(1R,5S)-3-(2-{[5-fluoro-6-(hydroxymethyl)pyridin-3-yl]amino}pyrimidin-4-yl)-3,8-diazabicyclo[3.2.1]oct-8-yl]methanone], the half-inhibitory concentration (IC50) in test [1] was 317 nM; in test [2], > 10000 nM; in test [3], 34 nM; in test [4], 468 nM; in test [5], 229 nM.

For the molecule `CCNC(=O)c1ccc(Nc2nccc(N3CC4CC(C3)N4C(=O)C3CC3)n2)cc1C` [Example 113, 4-({4-[6-(cyclopropylcarbonyl)-3,6-diazabicyclo[3.1.1]hept-3-yl]pyrimidin-2-yl}amino)-N-ethyl-2-methylbenzamide], the IC50 was 8580 nM in test [1]; > 10000 nM in test [2]; 82 nM in test [3]; 7860 nM in test [4]; 939 nM in test [5].
